Entries after “also recorded” stand apart in the source; their conditions may differ.
Legend:
Erk 1/2 = test: Mitogenic signal transduction, western blot for phosphorylated Erk 1/2 (FIGS. 11, 12); format: cell-based; conditions: human mesenchymal stem cells stimulated; compared with controlled cells (not stimulated)
Protocol: For the purpose of clarifying a mechanism of cell proliferation in a serum-free culture medium, study was further conducted on activation of a mitogenic signal transduction system caused by each additive factor added into a serum-free culture medium. An active state of the mitogenic signal transduction system caused by each additive factor was analyzed by a western blot method. Here, in protein phosphoenzymes that are particularly closely related to cell proliferation, an extracellular signal control kinase Erk 1/2 and an Akt (a protein phosphoenzyme located downstream to PI3K, and related to regulations of cell functions) were focused in the present example. When the Erk1 1/2 and the Akt are phosphorylated, they are converted into active forms. […] The cultured cells were washed twice with PBS, and were then further cultured for 16 hours in a serum-free culture medium containing 1.25 mg/ml of BSA (bovine serum albumin). After that, the cultured cells were incubated for minutes respectively: (i) in stimulating solutions respectively containing growth factors (E: EGF, F: FGF, G: PDGF, H: HGF, I: insulin, J: TGF-β), dexamethasone (D), transferrin (T); […] B1, A6: phosphatidic acid, A7: phosphatidyl choline); and (iii) in a controlling solution containing none of them. Further, each of the stimulating solutions, and the controlling solution were removed by suction on ice, and then, the cells were washed twice with PBS. The cells thus washed were dissolved in lysis buffer. The resultant cell lysis solution was centrifuged by 6.500 g for 10 minutes, and its supernatant liquid was electrophoresed on 10% SDS-polyacrylamide gel. Proteins thus separated into fractions were transferred on a PVDF membrane (made by Millipore Co.), and then, the fractions were analyzed with antiphosphorylation-specific Erk 1/2 antibody, or antiphosphorylation-specific Akt antibody (both are made by Cell Signaling technology Inc.).

Akt = test: Mitogenic signal transduction, western blot for phosphorylated Akt (FIGS. 11, 12); format: cell-based; conditions: human mesenchymal stem cells stimulated; compared with controlled cells (not stimulated)
Protocol: For the purpose of clarifying a mechanism of cell proliferation in a serum-free culture medium, study was further conducted on activation of a mitogenic signal transduction system caused by each additive factor added into a serum-free culture medium. An active state of the mitogenic signal transduction system caused by each additive factor was analyzed by a western blot method. Here, in protein phosphoenzymes that are particularly closely related to cell proliferation, an extracellular signal control kinase Erk 1/2 and an Akt (a protein phosphoenzyme located downstream to PI3K, and related to regulations of cell functions) were focused in the present example. When the Erk1 1/2 and the Akt are phosphorylated, they are converted into active forms. In a culture medium containing 10% FBS on a 12-well plate, human mesenchymal stem cells (three cell lines) were cultured until the cells were in a subconfluent state. The cultured cells were washed twice with PBS, and were then further cultured for 16 hours in a serum-free culture medium containing 1.25 mg/ml of BSA (bovine serum albumin). […] Proteins thus separated into fractions were transferred on a PVDF membrane (made by Millipore Co.), and then, the fractions were analyzed with antiphosphorylation-specific Erk 1/2 antibody, or antiphosphorylation-specific Akt antibody (both are made by Cell Signaling technology Inc.).

[1] = test system: human mesenchymal stem cell; conditions: added to a culture medium containing 10% FBS; cited from earlier work

Compound | phosphorylation of the Erk 1/2 (Erk 1/2) | further results
3-sn-phosphatidic acid from egg yolk | strongly promoted | phosphorylation of the Akt (Akt): strongly promoted
3-sn-phosphatidyl choline from egg yolk | promoted | –
CCCCC/C=C\C/C=C\C/C=C\C/C=C\CCCC(=O)O [arachidonic acid] | promoted | –
CCCCC/C=C\C/C=C\CCCCCCCC(=O)O [linoleic acid] | promoted | –
[Cl-].[Li+] [lithium chloride] | – | proliferation of a human mesenchymal stem cell [1]: promoting proliferation; wingless/int (wnt) signal pathway [1]: activates
CCCCCCCC/C=C\CCCCCCCC(=O)O [oleic acid] | promoted | –
EGF: epidermal growth factor | more phosphorylated | –
FGF: growth factor of the fibroblast growth factor family, preferably FGF-2 (bFGF) | more phosphorylated | –
HGF: growth factor added to the serum-free culture medium | more phosphorylated; also recorded: promoted in view of concentration dependence | phosphorylation of the Akt (Akt): also promoted
PDGF | more phosphorylated | –
insulin: medium supplement | more phosphorylated | –

Reference: patent publication US10184112B2, “Culture medium additive for use in serum-free culturing of animal cell, kit and use thereof” (Two Cells Co., Ltd., priority 2006, dated 2019)
